From US9315563B2, “Peptides that inhibit angiotensin converting enzyme and peptides with antioxidant activity purified from ovotransferrin and methods of producing and using the same” (The Governors of the University of Alberta, priority 2009, dated 2016) come the findings set out here.

The assay can be described thus: ORAC-FL assay (oxygen radical absorbance capacity). Conditions: for ORAC: chemically synthesized peptides, Trolox equivalent; for Change of antioxidant activity on extension of the peptide: ORAC, relative to GWNI, WNIP or AGWNIP; for ORAC value (sign, in words): suggesting prooxidant activity. How it is done:
Briefly, 80 mM AAPH and 200 nM fluorescein in 75 mM phosphate buffer at pH 7.4 were prepared for each experiment. For each run, 20 μL of antioxidant, and 80 μL of phosphate buffer (or 100 μL of Trolox standard solutions at final concentrations of 1 to 8 μM) were placed in wells of a 96-well microplate, followed by addition of 50 μL of the fluorescein solution. The mixture was preincubated for 15 min at 37° C. 50 μL of AAPH solution was added rapidly using a multichannel pipet. The microplate was immediately placed in a Fluoroskan Ascent microplate reader (Thermo Electron Corporation) with 485-P excitation and 538-P emission filters and the fluorescence recorded every minute for 100 min. All readings were recorded using Fluoroskan Ascent software. The area under the curve of fluorescence decay (AUC) was calculated using Graphpad prism software (trial version). Regression equations between AUC and antioxidant concentrations were calculated for all the samples. The ORAC value was calculated by dividing the slope of sample regression curve by the slope of Trolox regression curve. Final ORAC values were expressed as μmol of Trolox equivalent/mg of protein or peptide.

Where “and” joins values, the source holds several entries; their conditions need not be identical. Equal entries are not always repeated.

With IANNEADAISLDGGQVFEAG, the ORAC turned out to be 0.43 ± 0.05 μmol/μmol.

For the molecule PIAAEVYEHTEGSTTSY, the ORAC is given as 1.68 ± 0.03 μmol/μmol.

For AGWNI, the “Change of antioxidant activity on extension of the peptide” value (“Change of antioxidant activity” below) was “decreased the antioxidant activity by half” and the ORAC amounted to 8.55 ± 0.60 μmol/μmol.

As to LGFEY, the ORAC was 9.79 ± 0.55 μmol/μmol.

For AIEWEGIESGSVEQA, the ORAC was 0.95 ± 0.46 μmol/μmol.

As to AGWNIP, the “Change of antioxidant activity” value is reported as “decreased the antioxidant activity by half” and the ORAC came to 7.64 ± 0.83 μmol/μmol.

With IAAEVYEHTEGSTTSY, the ORAC came to 2.39 ± 0.17 μmol/μmol.

LVEKGDVAFI: the ORAC was −0.07 ± 0.03 μmol/μmol and the “ORAC value (sign, in words)” value was “negative ORAC values”.

Consider AGWNIPIGT, for which the “Change of antioxidant activity” value was “did not decrease the antioxidant activity further” and the ORAC was determined as 5.25 ± 0.26 μmol/μmol.

In the case of IEWEGIESGSVEQA, the ORAC was determined as 0.73 ± 0.16 μmol/μmol.

For the molecule VIPMGL, the ORAC was 2.89 ± 0.15 μmol/μmol.

GWNI: the ORAC is 13.90 μmol/μmol and 13.90 ± 1.05 μmol/μmol.

Regarding WNIP, the ORAC was 15.47 μmol/μmol and 15.47 ± 0.68 μmol/μmol.

For LSKAQSDFG, the ORAC is −1.40 ± 0.69 μmol/μmol and the “ORAC value (sign, in words)” value is given as “negative ORAC values”.

Turning to `Oc1cc(O)c2c(c1)O[C@H](c1ccc(O)c(O)c1)[C@@H](O)C2` [(+)-catechin, reference compound], the ORAC is recorded as 14.9 μmol/μmol.

For GWNIP, the “Change of antioxidant activity” value is “decreased the antioxidant activity by half” and the ORAC came to 6.19 ± 0.64 μmol/μmol.

As for LGFEYY, the ORAC amounted to 7.25 ± 0.71 μmol/μmol.
